Measured values reported in patent US20210300936A1, “PYRAZOLOTRIAZOLOPYRIMIDINE DERIVATIVES AS A2A RECEPTOR ANTAGONIST” (BEIGENE, LTD., priority 2018, published 2021).

Biological target: human A2A receptor (A2AR) (Homo sapiens, UniProt P29274)
Test: Luciferase reporter assay (HEK293-A2AR-luc2p/CRE/Hygro cells, 3 nM CGS21680)
Format: cell-based
Conditions: 3 nM CGS21680, 5 h incubation
How it was run: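 Antagonist (0.1–10000 nM) and 3 nM CGS21680 were co-added for 5 h to stable HEK293-A2AR-luc2p/CRE cells, 18 h after seeding in 1% FBS medium containing adenosine deaminase. Luminescence was normalized to agonist alone (100%), and IC50 came from the dose–inhibition curve.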

human A2A receptor (A2AR), sequence (P29274 whole entry): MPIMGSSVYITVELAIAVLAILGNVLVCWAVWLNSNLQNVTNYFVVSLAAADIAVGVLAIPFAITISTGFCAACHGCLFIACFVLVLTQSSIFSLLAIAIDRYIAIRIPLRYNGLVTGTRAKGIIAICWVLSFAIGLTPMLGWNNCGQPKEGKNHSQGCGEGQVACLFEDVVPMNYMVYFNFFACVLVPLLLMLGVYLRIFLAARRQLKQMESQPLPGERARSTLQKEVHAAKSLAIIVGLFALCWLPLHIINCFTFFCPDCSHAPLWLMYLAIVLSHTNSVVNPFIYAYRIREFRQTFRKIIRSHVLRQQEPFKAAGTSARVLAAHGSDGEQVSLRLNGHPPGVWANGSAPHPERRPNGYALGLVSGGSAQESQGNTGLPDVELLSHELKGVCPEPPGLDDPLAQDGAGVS

How did the IC50 turn out when COCCOc1ccc(N2CCN(C(=O)[C@](C)(c3ccccc3)n3ncc4c3nc(N)n3nc(-c5ccco5)nc43)CC2)cc1F [Compound A66a, (S)-2-(5-amino-2-(furan-2-yl)-7H-pyrazolo[4,3-e][1,2,4]triazolo[1,5-c]pyrimidin-7-yl)-1-(4-(3-fluoro-4-(2-methoxyethoxy)phenyl)piperazin-1-yl)-2-phenylpropan-1-one] was run?
The IC50 was 16.8 nM.

COCCOc1ccc(N2CCN(C(=O)[C@@](C)(c3ccccc3)n3ncc4c3nc(N)n3nc(-c5ccco5)nc43)CC2)cc1F [Compound A66b, (R)-2-(5-amino-2-(furan-2-yl)-7H-pyrazolo[4,3-e][1,2,4]triazolo[1,5-c]pyrimidin-7-yl)-1-(4-(3-fluoro-4-(2-methoxyethoxy)phenyl)piperazin-1-yl)-2-phenylpropan-1-one] was tested. Which IC50 did it give?
Its IC50 is 3.3 nM.

How did the IC50 turn out when COCCOc1ccc(N2CCN(C(=O)C(C)(c3ccccc3)n3ncc4c3nc(N)n3nc(-c5ccco5)nc43)CC2)c(F)c1F (stereo not shown) [Compound A67, 2-(5-amino-2-(furan-2-yl)-7H-pyrazolo[4,3-e][1,2,4]triazolo[1,5-c]pyrimidin-7-yl)-1-(4-(2,3-difluoro-4-(2-methoxyethoxy)phenyl)piperazin-1-yl)-2-phenylpropan-1-one] was run?
The IC50 was 8.9 nM.

CC(C(=O)N1CCN(c2ccc(F)cc2F)CC1)(c1ccccc1)n1ncc2c1nc(N)n1nc(-c3ccco3)nc21 (stereo not shown) [Compound A68, 2-(5-amino-2-(furan-2-yl)-7H-pyrazolo[4,3-e][1,2,4]triazolo[1,5-c]pyrimidin-7-yl)-1-(4-(2,4-difluorophenyl)piperazin-1-yl)-2-phenylpropan-1-one] was tested. Which IC50 did it give?
The IC50 was 4.4 nM.

Which IC50 does the source give for CC(C(=O)N1CCN(c2ccccc2F)CC1)(c1ccccc1)n1ncc2c1nc(N)n1nc(-c3ccco3)nc21 (stereo not shown) [Compound A69, 2-(5-amino-2-(furan-2-yl)-7H-pyrazolo[4,3-e][1,2,4]triazolo[1,5-c]pyrimidin-7-yl)-1-(4-(2-fluorophenyl)piperazin-1-yl)-2-phenylpropan-1-one] here?
Its IC50 is 3.4 nM.

CC(C(=O)N1CCN(c2ccc(F)cc2)CC1)(c1ccccc1)n1ncc2c1nc(N)n1nc(-c3ccco3)nc21 (stereo not shown) [Compound A70, 2-(5-amino-2-(furan-2-yl)-7H-pyrazolo[4,3-e][1,2,4]triazolo[1,5-c]pyrimidin-7-yl)-1-(4-(4-fluorophenyl)piperazin-1-yl)-2-phenylpropan-1-one] was tested. Which IC50 did it give?
The IC50 was 5 nM.

C[C@@](C(=O)N1CCN(c2ccc(F)cc2)CC1)(c1ccccc1)n1ncc2c1nc(N)n1nc(-c3ccco3)nc21 [Compound A70a, (S)-2-(5-amino-2-(furan-2-yl)-7H-pyrazolo[4,3-e][1,2,4]triazolo[1,5-c]pyrimidin-7-yl)-1-(4-(4-fluorophenyl)piperazin-1-yl)-2-phenylpropan-1-one] was tested. Which IC50 did it give?
Its IC50 is 10.1 nM.

For C[C@](C(=O)N1CCN(c2ccc(F)cc2)CC1)(c1ccccc1)n1ncc2c1nc(N)n1nc(-c3ccco3)nc21 [Compound A70b, (R)-2-(5-amino-2-(furan-2-yl)-7H-pyrazolo[4,3-e][1,2,4]triazolo[1,5-c]pyrimidin-7-yl)-1-(4-(4-fluorophenyl)piperazin-1-yl)-2-phenylpropan-1-one], which IC50 is on record?
Its IC50 is 3.4 nM.

CN(C)CCOc1ccc(N2CCN(C(=O)C(C)(c3ccccc3)n3ncc4c3nc(N)n3nc(-c5ccco5)nc43)CC2)cc1 (stereo not shown) [Compound A71, 2-(5-amino-2-(furan-2-yl)-7H-pyrazolo[4,3-e][1,2,4]triazolo[1,5-c]pyrimidin-7-yl)-1-(4-(4-(2-(dimethylamino)ethoxy)phenyl)piperazin-1-yl)-2-phenylpropan-1-one] was tested. Which IC50 did it give?
Its IC50 is 7.5 nM.

For COCCOc1ccc(N2CCN(C(=O)C(C)(c3ccccc3)n3ncc4c3nc(N)n3nc(-c5ccco5)nc43)[C@@H](C)C2)cc1 (stereo partly drawn) [Compound A72, 2-(5-amino-2-(furan-2-yl)-7H-pyrazolo[4,3-e][1,2,4]triazolo[1,5-c]pyrimidin-7-yl)-1-((S)-4-(4-(2-methoxyethoxy)phenyl)-2-methylpiperazin-1-yl)-2-phenylpropan-1-one], which IC50 is on record?
The IC50 was 103 nM.
